Here are results for two molecules from ChEMBL document CHEMBL1201862, “PubChem BioAssay data set” (2004).

Test systems include CAKI-1; OVCAR-5; SK-MEL-5; UACC-257; A549; ACHN; BT-549; SF-268; DLD-1; MCF7; HL-60; RPMI-8226; TK-10; NCI-H460; U-251; MDA-MB-435; RXF 393; SK-MEL-2; SK-OV-3; NCI-H522.
Experiment in all cases: NCI-60 cell line screen, 48 h

Structures are written as SMILES.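 All cell lines were grown in 96-well plates and treated with compound for 48 hours. The concentration for 50% growth inhibition is given as GI50.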 Activity calls are given as the source filed them. Rule as the data show it: active = GI50 up to about 1.1 µM and inactive = higher.

On to `NC1=C(Cl)C(=O)c2ccccc2C1=O`, for which the GI50 with CAKI-1 was 17.3 µM (inactive); in the test on OVCAR-5, 10.3 µM (inactive); with SK-MEL-5 it was 0.834 µM (active); with UACC-257, 2.57 µM (inactive); in the test with A549, 2.93 µM (inactive); in the test with ACHN, 9.27 µM (inactive). Further, the GI50 with BT-549 is 2.47 µM (inactive); in the test on SF-268, 11.2 µM (inactive); in the test with DLD-1, 8.75 µM (inactive); with MCF7, 2.06 µM (inactive); in the test with HL-60 it was 3.55 µM (inactive); in the test on RPMI-8226, 18.4 µM (inactive). Moreover, the GI50 in the test on TK-10 is 22.2 µM (inactive); in the test on NCI-H460, 3.43 µM (inactive); in the test with U-251, 4.34 µM (inactive); in the test on MDA-MB-435, 0.8 µM (active); in the test with RXF 393, 7.67 µM (inactive); in the test with SK-MEL-2, 7.08 µM (inactive). Moreover, the GI50 with SK-OV-3 was 2.52 µM (inactive); in the test on NCI-H522, 5.22 µM (inactive).
Take `CC1(C)C(=O)/C=C\C(=O)C(C)(C)C(=O)/C=C\C(=O)C(C)(C)C2=CC=C(O2)C(C)(C)C(=O)/C=C\C1=O`: the GI50 in the test with CAKI-1 was 3.84 µM (inactive); with OVCAR-5, 20.8 µM (inactive); in the test on SK-MEL-5, 7.85 µM (inactive); in the test on UACC-257, 5.71 µM (inactive); with A549 it was 21.1 µM (inactive); in the test with ACHN it was 3.63 µM (inactive). For the same molecule, the GI50 with BT-549 was 11.9 µM (inactive); with SF-268 it was 16.6 µM (inactive); in the test on DLD-1 it was 1.72 µM (inactive); in the test on MCF7, 10.6 µM (inactive); in the test on HL-60, 0.684 µM (active); in the test with RPMI-8226 it was 0.789 µM (active). In addition, the GI50 in the test with TK-10 is 7.6 µM (inactive); with NCI-H460, 20.5 µM (inactive); in the test with U-251 it was 15.7 µM (inactive); in the test on MDA-MB-435 it was 15.7 µM (inactive); in the test on RXF 393, 2 µM (inactive); in the test on SK-MEL-2, 12.1 µM (inactive). Further, the GI50 in the test on SK-OV-3 was 15.9 µM (inactive); in the test with NCI-H522 it was 1.44 µM (inactive).
